Among the data in ChEMBL document CHEMBL4828721, “Substituted dienes prepared from betulinic acid - Synthesis, cytotoxicity, mechanism of action, and pharmacological parameters” (Eur J Med Chem, 2021) are IC50 values, retold here.

The structures appear in SMILES notation.

Test [1] can be described thus: Cytotoxicity against human HCT116 p53-null cells assessed as reduction in cell viability measured after 72 hrs by MTS assay. In kind it is functional, cell-based.
For test [2], the system named is MRC5. Kind of test: Cytotoxicity against human MRC5 cells assessed as reduction in cell viability measured after 72 hrs by MTS assay. Conditions: MRC5, 72 h. In kind it is cell-based.
Test [3] has as its system BJ. Kind of test: Cytotoxicity against human BJ cells assessed as reduction in cell viability measured after 72 hrs by MTS assay. In kind it is cell-based.
The subject of test [4] is K562. Kind of test: Cytotoxicity against human K562 cells assessed as reduction in cell viability measured after 72 hrs by MTS assay. In kind it is functional, cell-based. Conditions: K562, 72 h.
Test [5] relates to A549. Kind of test: Cytotoxicity against human A549 cells assessed as reduction in cell viability measured after 72 hrs by MTS assay. In kind it is functional, cell-based. Conditions: A549, 72 h.
In test [6] the test system is U2OS. Kind of test: Cytotoxicity against human U2OS cells assessed as reduction in cell viability measured after 72 hrs by MTS assay. In kind it is functional, cell-based.
Test [7] has as its system HCT-116. Kind of test: Cytotoxicity against human HCT-116 cells assessed as reduction in cell viability measured after 72 hrs by MTS assay. The following applies: HCT-116, 72 h. In kind it is functional, cell-based.
The subject of test [8] is CCRF-CEM. Kind of test: Cytotoxicity against human CCRF-CEM cells assessed as reduction in cell viability measured after 72 hrs by MTS assay. The test is classed as functional, cell-based.
Test [9] can be described thus: Cytotoxicity against paclitaxel resistant human K562-Tax cells assessed as reduction in cell viability measured after 72 hrs by MTS assay. The test is classed as functional, cell-based.
Test [10] concerns CEM-DNR. Kind of test: Cytotoxicity against daunorubicin resistant human CEM-DNR cells assessed as reduction in cell viability measured after 72 hrs by MTS assay. In kind it is functional, cell-based.

Turning to `C=C(/C=C/c1cccc(I)c1)[C@@H]1CC[C@]2(C(=O)O)CC[C@]3(C)[C@H](CC[C@@H]4[C@@]5(C)CC[C@H](O)C(C)(C)[C@@H]5CC[C@]43C)[C@@H]12`, the IC50 in [1] was 29.5 µM; in test [2] it was more than 50 µM; in test [3], more than 50 µM; in test [4], 25.2 µM; in test [5] it was 38.7 µM; in test [6], 28.4 µM. The IC50 is 27.3 µM in [7], 11.6 µM in test [8], 48.4 µM in test [9] and more than 50 µM in [10].

Consider `C=C(/C=C/c1ccccc1)[C@@H]1CC[C@]2(C(=O)O)CC[C@]3(C)[C@H](CC[C@@H]4[C@@]5(C)CC[C@H](O)C(C)(C)[C@@H]5CC[C@]43C)[C@@H]12`, for which the IC50 in [1] is 39.5 µM; in [2] it was more than 50 µM; in test [3] it was more than 50 µM; in test [4], 40 µM; in test [5] it was 41.8 µM; in test [6], 24.2 µM. In addition, the IC50 was 35.5 µM in [7], 6.5 µM in test [8], 25.3 µM in test [9] and 30.2 µM in test [10].

Regarding `C=C(/C=C/c1ccc(Br)cc1F)[C@@H]1CC[C@]2(C(=O)O)CC[C@]3(C)[C@H](CC[C@@H]4[C@@]5(C)CC[C@H](O)C(C)(C)[C@@H]5CC[C@]43C)[C@@H]12`, the IC50 in test [1] turned out to be 33.6 µM; in test [2] it was 33.7 µM; in [3] it was 43 µM; in test [4] it was 26 µM; in [5], 32.5 µM; in test [6], 29.7 µM. Also, the IC50 was 33.5 µM in test [7], 22.4 µM in test [8], more than 50 µM in test [9] and more than 50 µM in [10].

`C=C(/C=C/c1cccc(F)c1)[C@@H]1CC[C@]2(C(=O)O)CC[C@]3(C)[C@H](CC[C@@H]4[C@@]5(C)CC[C@H](O)C(C)(C)[C@@H]5CC[C@]43C)[C@@H]12`: the IC50 in test [1] came to 21 µM; in test [2] it was 32.1 µM; in test [3], 41.5 µM; in test [4], 21.6 µM; in test [5] it was 28.7 µM; in [6], 27.7 µM. For the same molecule, the IC50 is 23 µM in [7], 11.7 µM in [8], 21.9 µM in [9] and 23.1 µM in [10].

With `C=C(/C=C/c1ccccc1C#N)[C@@H]1CC[C@]2(C(=O)O)CC[C@]3(C)[C@H](CC[C@@H]4[C@@]5(C)CC[C@H](O)C(C)(C)[C@@H]5CC[C@]43C)[C@@H]12`, the half-inhibitory concentration (IC50) in test [1] is 47 µM; in test [2] it was more than 50 µM; in test [3], more than 50 µM; in test [4], more than 50 µM; in test [5] it was more than 50 µM; in [6], 40.4 µM. The concentration for half-maximal inhibition (IC50) was determined as 36.6 µM in [7], 23.2 µM in [8], 24.8 µM in test [9] and 26.8 µM in test [10].

For the molecule `C=C(/C=C/c1cccc(Br)c1)[C@@H]1CC[C@]2(C(=O)O)CC[C@]3(C)[C@H](CC[C@@H]4[C@@]5(C)CC[C@H](O)C(C)(C)[C@@H]5CC[C@]43C)[C@@H]12`, the IC50 in [1] is 26.8 µM; in test [2] it was more than 50 µM; in test [3], more than 50 µM; in test [4] it was 23.6 µM; in [5] it was 33.1 µM; in test [6], 27.6 µM. The IC50 in test [7] came out at 25.3 µM; in test [8], 8.8 µM; in test [9] it was 32.8 µM; in test [10], 35.9 µM.

Turning to `C=C(/C=C/c1ccccc1F)[C@@H]1CC[C@]2(C(=O)O)CC[C@]3(C)[C@H](CC[C@@H]4[C@@]5(C)CC[C@H](O)C(C)(C)[C@@H]5CC[C@]43C)[C@@H]12`, the IC50 in [1] is 22.6 µM; in [2], 31.7 µM; in [3], 42.1 µM; in [4], 21.8 µM; in [5], 29.7 µM; in [6] it was 27.7 µM. In addition, the IC50 in [7] worked out at 24.5 µM; in [8], 15.4 µM; in [9], 25.1 µM; in test [10] it was 23.2 µM.

Consider `C=C(/C=C/c1cccc(C#N)c1)[C@@H]1CC[C@]2(C(=O)O)CC[C@]3(C)[C@H](CC[C@@H]4[C@@]5(C)CC[C@H](O)C(C)(C)[C@@H]5CC[C@]43C)[C@@H]12`, for which the IC50 was 29.4 µM in test [1]; more than 50 µM in test [2]; more than 50 µM in test [3]; more than 50 µM in [4]; more than 50 µM in test [5]; more than 50 µM in test [6]. Besides, the IC50 came to 35.1 µM in test [7], 12.1 µM in [8], 22.7 µM in test [9] and 21.6 µM in [10].

`C=CC(=C)[C@@H]1CC[C@]2(C(=O)O)CC[C@]3(C)[C@H](CC[C@@H]4[C@@]5(C)CC[C@H](O)C(C)(C)[C@@H]5CC[C@]43C)[C@@H]12`: the IC50 in test [1] was 24.3 µM; in test [2], 24.3 µM; in [3], 44.6 µM; in test [4], 15.7 µM; in test [5] it was 23.9 µM; in [6], 24.1 µM. The IC50 in test [7] is 24.1 µM; in test [8] it was 11.1 µM; in test [9] it was 26.2 µM; in test [10], 25.1 µM.

With `C=C(/C=C/c1cccc(OC)c1)[C@@H]1CC[C@]2(C(=O)O)CC[C@]3(C)[C@H](CC[C@@H]4[C@@]5(C)CC[C@H](O)C(C)(C)[C@@H]5CC[C@]43C)[C@@H]12`, the IC50 in test [1] was 39.6 µM; in test [2], 44.1 µM; in [3], more than 50 µM; in test [4], 41.4 µM; in [5], 40.1 µM; in test [6] it was 25.2 µM. In addition, the IC50 worked out at 34.6 µM in [7], 4.6 µM in test [8], 25.6 µM in [9] and 30.6 µM in test [10].

`C=C(/C=C/c1ccc(F)c(Cl)c1)[C@@H]1CC[C@]2(C(=O)O)CC[C@]3(C)[C@H](CC[C@@H]4[C@@]5(C)CC[C@H](O)C(C)(C)[C@@H]5CC[C@]43C)[C@@H]12`: the IC50 in test [1] was 20.8 µM; in test [2] it was 32.4 µM; in test [3], more than 50 µM; in test [4], 40.6 µM; in test [5], 45.5 µM; in [6], 26.5 µM. Further, the IC50 in test [7] amounted to 21.8 µM; in test [8], 5.5 µM; in test [9], 25.2 µM; in test [10] it was 27.8 µM.

On to `C=C(/C=C/c1ccccn1)[C@@H]1CC[C@]2(C(=O)O)CC[C@]3(C)[C@H](CC[C@@H]4[C@@]5(C)CC[C@H](O)C(C)(C)[C@@H]5CC[C@]43C)[C@@H]12`, for which the IC50 in test [1], in test [2], in test [3], in [4], in test [5] and in test [6] was more than 50 µM each time. Further, the IC50 in test [7] was more than 50 µM; in test [8], 19.7 µM; in test [9] it was 29.2 µM; in [10], 27.7 µM.

Turning to `C=C(/C=C/c1cc(OC)cc(OC)c1)[C@@H]1CC[C@]2(C(=O)O)CC[C@]3(C)[C@H](CC[C@@H]4[C@@]5(C)CC[C@H](O)C(C)(C)[C@@H]5CC[C@]43C)[C@@H]12`, the IC50 in [1] was found to be 20.8 µM; in test [2], 29.2 µM; in test [3], 47.6 µM; in [4] it was 22.2 µM; in test [5], 19 µM; in test [6] it was 22.3 µM. For the same molecule, the IC50 in test [7] was found to be 17.3 µM; in test [8], 10 µM; in [9] it was 16 µM; in [10], 13.7 µM.

On to `C=C(/C=C/c1ccccc1[N+](=O)[O-])[C@@H]1CC[C@]2(C(=O)O)CC[C@]3(C)[C@H](CC[C@@H]4[C@@]5(C)CC[C@H](O)C(C)(C)[C@@H]5CC[C@]43C)[C@@H]12`, for which the IC50 in test [1] is 39.3 µM; in [2] it was more than 50 µM; in test [3] it was more than 50 µM; in test [4], more than 50 µM; in test [5], 45.2 µM; in test [6], 33.1 µM. The IC50 stood at 34.8 µM in test [7], 23.7 µM in test [8], 29.8 µM in [9] and 30.6 µM in test [10].

For `C=C(/C=C/c1ccc(C(=O)O)cc1)[C@@H]1CC[C@]2(C(=O)O)CC[C@]3(C)[C@H](CC[C@@H]4[C@@]5(C)CC[C@H](O)C(C)(C)[C@@H]5CC[C@]43C)[C@@H]12`, the half-maximal inhibitory concentration (IC50) was 42.5 µM in test [1]; more than 50 µM in test [2]; more than 50 µM in test [3]; more than 50 µM in [4]; more than 50 µM in test [5]; 49 µM in [6]. The IC50 came out at 39 µM in [7], 17.5 µM in [8], 39.2 µM in test [9] and 32 µM in test [10].

Consider `C=C(/C=C/c1ccc2ccccc2c1)[C@@H]1CC[C@]2(C(=O)O)CC[C@]3(C)[C@H](CC[C@@H]4[C@@]5(C)CC[C@H](O)C(C)(C)[C@@H]5CC[C@]43C)[C@@H]12`, for which the IC50 in test [1] is 26.3 µM; in test [2], 43.1 µM; in test [3], more than 50 µM; in test [4], more than 50 µM; in test [5], 32.9 µM; in test [6] it was 27.2 µM. Besides, the IC50 in test [7] is 30.2 µM; in test [8], 11.8 µM; in test [9], 45.8 µM; in test [10], 47 µM.
